The target of data set [1] is T1, Human vanilloid receptor (hVR1) (Homo sapiens, UniProt Q8NER1).
T1 construct: expressed in transfected cells
Description: Capsaicin-induced Ca2+ influx in the human VR1-transfected CHO cell line (Assay 1). Format: cell-based. The following applies: human VR1-CHOluc9aeq cells, stimulation with 10 nM capsaicin, Fluo-3 fluorescence (FDSS-3000); read-out: Activity Class (IC50). An excerpt: [Measurement of Capsaicin-induced Ca^2+ influx in the Human VR1-transfected CHO Cell Line] (Assay 1)
• (1) Establishment of the Human VR1-CHOluc9aeq Cell Line • Human vanilloid receptor (hVR1) cDNA was cloned from libraries of axotomized dorsal root ganglia (WO 00/29577). The cloned hVR1 cDNA was constructed with pcDNA3 vector and transfected into a CHOluc9aeq cell line. The cell line contains aequorin and CRE-luciferase reporter genes as read-out signals. The transfectants were cloned by limiting dilution in selection medium (DMEM/F12 medium (Gibco BRL) supplemented with 10%
FCS, 1.4 mM Sodium pyruvate, 20 mM HEPES, 0.15% Sodium bicarbonate, 100 U/ml penicillin, 100 μg/ml streptomycin, 2 mM glutamine, non-essential amino acids and 2 mg/ml G418). Ca^2+ influx was examined in the capsaicin-stimulated clones. A high responder clone was selected and used for furter experiments in the project. The human VR1-CHOluc9aeq cells were maintained in the selection medium and passaged every 3-4 days at 1-2.5×10^5 cells/flask ([…]). • (2) Measurement of Ca^2+ Influx Using FDSS-3000 • Human VR1-CHOluc9aeq cells were suspended in a culture medium which is the same as the selection medium except for G418 and seeded at a density of 1,000 cells per well into 384-well plates (black walled clear-base/Nalge Nunc International). Following the culture for 48 hrs the medium was changed to 2 μM Fluo-3 AM (Molecular Probes) and 0.02% Puronic F-127 in assay buffer (Hank's balanced salt solution (HBSS), 17 mM HEPES (pH7.4), 1 mM Probenecid, 0.1% BSA) and the cells were incubated for 60 min at 25° C. After washing twice with assay buffer the cells were incubated with a test compound or vehicle for 20 min at 25° C. Mobilization of cytoplasmic Ca^2+ was measured by FDSS-3000 (λex=488 nm, λem=540 nm/Hamamatsu Photonics) for 60 sec after the stimulation with 10 nM capsaicin. Integral R was calculated and compared with controls. [Measurement of the Capsaicin-induced Ca^2+ Influx in Primary Cultured Rat Dorsal Root Ganglia Neurons] (Assay 2) • (1) Preparation of Rat Dorsal Root Ganglia Neurons • New born Wister rats (5-11 days) were sacrificed and dorsal root ganglia (DRG) was removed. DRG was incubated with 0.1% trypsin (Gibco BRL) in PBS(−) (Gibco BRL) for 30 min at 37° C., then a half volume of fetal calf serum (FCS) was added and the cells were spun down. The DRG neuron cells were resuspended in Ham F12/5% FCS/5% horse serum (Gibco BRL) and dispersed by repeated pipetting and passing through 70 μm mesh (Falcon). The culture plate was incubated for 3 hours at 37° C. to remove contaminating Schwann cells. Non-adherent cells were recovered and further cultured in laminin-coated 384 well plates (Nunc) at 1×10^4 cells/50 μl/well for 2 days in the presence of 50 ng/ml recombinant rat NGF (Sigma) and 50 μM 5-fluorodeoxyuridine (Sigma). • (2) Ca^2+ Mobilization Assay • DRG neuron cells were washed twice with HBSS supplemented with 17 mM BEPES (pH 7.4) and 0.1% BSA. After incubating with 2 μM fluo-3AM (Volectuar Probe), 0.02% PF127 (Gibco BRL) and 1 mM probenecid (Sigma) for 40 min at 37° C., cells were washed 3 times. The cells were incubated with VR1 antagonists or vehicle (dimethylsulfoxide) and then with 1 μM capsaicin in FDSS-6000 (λex=480 mn, λem=520 nm/Hamamatsu Photonics). The fluorescence changes at […] were monitored for 2.5 min. Integral R was calculated and compared with controls. [Organ Bath Assay to Measure the Capsaicin-induced Bladder Contraction] (Assay 3) • Male Wistar rats (10 week old) were anesthetized with ether and sacrificed by dislocating the necks. The whole urinary bladder was excised and placed in oxygenated Modified Krebs-Henseleit solution (pH 7.4) of the following composition (112 mM NaCl, 5.9 mM KCl, 1.2 mM MgCl2, 1.2 mM NaH2PO4, 2 mM CaCl2, […], 12 mM glucose). Contractile responses of the urinary bladder were studied as described previously [Maggi C A et al: Br. J. Pharmacol. 108: 801-805, 1993]. […]

Structures are written as SMILES.

T1 sequence (Q8NER1 whole entry): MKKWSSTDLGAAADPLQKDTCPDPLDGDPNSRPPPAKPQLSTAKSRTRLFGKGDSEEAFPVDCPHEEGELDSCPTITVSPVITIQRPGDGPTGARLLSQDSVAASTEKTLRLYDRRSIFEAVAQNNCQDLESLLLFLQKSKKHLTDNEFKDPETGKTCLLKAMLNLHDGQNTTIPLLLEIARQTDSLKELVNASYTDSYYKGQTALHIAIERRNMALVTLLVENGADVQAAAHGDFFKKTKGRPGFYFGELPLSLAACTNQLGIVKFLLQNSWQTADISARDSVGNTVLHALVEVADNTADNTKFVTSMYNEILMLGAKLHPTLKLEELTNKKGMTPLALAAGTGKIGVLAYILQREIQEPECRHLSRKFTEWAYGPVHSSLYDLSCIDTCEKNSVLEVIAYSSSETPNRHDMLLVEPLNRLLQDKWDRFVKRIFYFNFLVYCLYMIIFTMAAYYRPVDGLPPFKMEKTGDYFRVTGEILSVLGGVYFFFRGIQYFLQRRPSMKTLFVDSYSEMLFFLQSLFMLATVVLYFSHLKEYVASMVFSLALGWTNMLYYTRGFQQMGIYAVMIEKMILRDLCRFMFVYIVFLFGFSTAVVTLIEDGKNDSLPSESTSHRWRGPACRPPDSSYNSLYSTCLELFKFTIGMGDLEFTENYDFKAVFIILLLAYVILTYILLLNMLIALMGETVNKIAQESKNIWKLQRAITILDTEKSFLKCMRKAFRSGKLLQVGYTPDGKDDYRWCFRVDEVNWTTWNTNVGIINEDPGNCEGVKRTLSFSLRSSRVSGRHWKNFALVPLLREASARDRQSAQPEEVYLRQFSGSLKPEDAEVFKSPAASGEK

The term melting point denotes the temperature of the solid-liquid transition. Broadly, the IC50 is the concentration that gives 50% inhibition. On to `O=C(Nc1cccc2c1CC(O)CC2)C1CCN(c2ccc(Cl)cc2C(F)(F)F)CC1` (centres unmarked) [Example 1-8, 1-[4-Chloro-2-(trifluoromethyl)phenyl]-N-(7-hydroxy-5,6,7,8-tetrahydronaphthalen-1-yl)piperidine-4-carboxamide], for which the melting point came to 182 °C. The IC50 in data set [1] was less than 100 nM.
